We go through eight compounds from patent publication US20190352276A1, “INHIBITORS OF BRUTON'S TYROSINE KINASE” (Joint Stock Company "Biocad", priority 2016, published 2019).

Series [1] can be described thus: Permeability through the monolayer of Caco-2 cells. Format: in vitro ADME. Conditions: human; for Papp A→B at 2 h, 10 μM / Papp B→A at 2 h, 10 μM: 2 h at 37° C.; for efflux ratio at 2 h, 10 μM: read-out: efflux (Papp B-A/Papp A-B). In a few lines:
(§1)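 Bidirectional transport measured over 7200 s with 10 μM compound, using an apical buffer at pH 6.5 and a basolateral Hanks/HEPES/glucose buffer at pH 7.4 containing 1% BSA. Monolayers were 21-day Caco-2 cultures verified with Lucifer Yellow. Chamber concentrations quantified chromatographically to derive Papp in both directions and their B-A/A-B efflux ratio.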
(Passage across Caco-2 layers is used to estimate intestinal permeability.)

Another series deals with Caco-2 cells. Briefly: Permeability through the monolayer of Caco-2 cells. Format: in vitro ADME. In a few lines:
as §1

Consider `C=CC(=O)N1CCC[C@@H](n2nc(-c3ccc(Oc4ccncc4)cc3)c3cncc(Cl)c32)C1` [BCD-BTK-125, (R)-1-(1-acryloylpiperidin-3-yl)-7-chloro-3-(4-(pyridin-4-yloxy)phenyl)-1H-pyrazolo[4,3-c]pyridine], for which, in series [1], the Papp A→B (in general, the apparent permeability from the apical to the basolateral side of a cell layer) at 2 h, 10 μM is 21 ×10⁻⁶ cm/s; the Papp B→A (usually how fast a substance crosses the layer from the basolateral side) at 2 h, 10 μM turned out to be 13.2 ×10⁻⁶ cm/s; the efflux ratio at 2 h, 10 μM came out at 0.6.
`C=CC(=O)N1CCC[C@@H](n2nc(-c3ccc(Oc4ccncc4)cc3)c3c(N)ncc(Cl)c32)C1` [BCD-BTK-139, (R)-1-(1-acryloylpiperidin-3-yl)-7-chloro-3-(4-(pyridin-4-yloxy)phenyl)-1H-pyrazolo[4,3-c]pyridin-4-amine]: in series [1], the Papp A→B at 2 h, 10 μM is 52.2 ×10⁻⁶ cm/s; the Papp B→A at 2 h, 10 μM is 5.7 ×10⁻⁶ cm/s; the efflux ratio at 2 h, 10 μM came to 0.1.
In series [1], `C=CC(=O)N1CCC[C@@H](n2nc(-c3ccc(Oc4ccncc4C#N)cc3)c3cncc(Cl)c32)C1` [BCD-BTK-202, (R)-4-(4-(1-(1-acryloylpiperidin-3-yl)-7-chloro-1H-pyrazolo[4,3-c]pyridin-3-yl)phenoxy)nicotinonitrile] yielded a Papp A→B at 2 h, 10 μM of 20.3 ×10⁻⁶ cm/s and a Papp B→A at 2 h, 10 μM of 1.91 ×10⁻⁶ cm/s. The “efflux (Papp B-A/Papp A-B)” value in the series on Caco-2 cells turned out to be 0.09.
Regarding `C=CC(=O)N1CCC[C@@H](n2nc(-c3ccc(Oc4cccnc4C#N)cc3)c3cncc(F)c32)C1` [BCD-BTK-230, (R)-3-(4-(1-(1-acryloylpiperidin-3-yl)-7-fluoro-1H-pyrazolo[4,3-c]pyridin-3-yl)phenoxy)picolinonitrile], in series [1], the Papp A→B at 2 h, 10 μM was 26.5 ×10⁻⁶ cm/s; the Papp B→A at 2 h, 10 μM was found to be 2.68 ×10⁻⁶ cm/s; the efflux ratio at 2 h, 10 μM was determined as 0.1.
In the same order, the values of `C=CC(=O)N1CCC[C@@H](n2nc(-c3ccc(C(=O)Nc4ccccn4)cc3)c3c(N)ncc(C#N)c32)C1` [BCD-BTK-234, (R)-4-(1-(1-acryloylpiperidin-3-yl)-4-amino-7-cyano-1H-pyrazolo[4,3-c]pyridin-3-yl)-N-(pyridine-2-yl)benzamide] are 8.2 ×10⁻⁶ cm/s, 9.2 ×10⁻⁶ cm/s and 1.1.
For `C=CC(=O)N1CCC[C@@H](n2nc(-c3ccc(C(=O)Nc4ccccn4)cc3)c3c(N)ncc(OC)c32)C1` [BCD-BTK-240, (R)-4-(1-(1-acryloylpiperidin-3-yl)-4-amino-7-methoxy-1H-pyrazolo[4,3-c]pyridin-3-yl)-N-(pyridin-2-yl)benzamide] the same measures were 18.2 ×10⁻⁶ cm/s, 11.1 ×10⁻⁶ cm/s and 0.61.
For `C=CC(=O)N1CCC[C@@H](n2nc(-c3ccc(C(=O)Nc4cc(C(F)(F)F)ccn4)cc3)c3c(N)ncc(Cl)c32)C1` [BCD-BTK-251, (R)-4-(1-(1-acryloylpiperidin-3-yl)-4-amino-7-chloro-1H-pyrazolo[4,3-c]pyridin-3-yl)-N-(4-(trifluoromethyl)pyridin-2-yl)benzamide] the same measures were 8.3 ×10⁻⁶ cm/s, 1.5 ×10⁻⁶ cm/s and 0.2.
In series [1], `C=CC(=O)N1CCC[C@@H](n2nc(-c3cnc(C(=O)Nc4cc(C(F)(F)CCC)ccn4)nc3)c3cncc(Cl)c32)C1` [BCD-BTK-292, (R)-5-(1-(1-acryloylpiperidin-3-yl)-7-chloro-1H-pyrazolo[4,3-c]pyridin-3-yl)-N-(4-(1,1-difluorobutyl)pyridin-2-yl)pyrimidine-2-carboxamide] gave a Papp A→B at 2 h, 10 μM of 11.6 ×10⁻⁶ cm/s and a Papp B→A at 2 h, 10 μM of 0.07 ×10⁻⁶ cm/s. In addition, in the series on Caco-2 cells, the “efflux (Papp B-A/Papp A-B)” value is given as 0.006.
